Measured values: patent publication US11737955B2, “Multi-functional micro and nanoparticles for use in root canal therapies” (THE GOVERNING COUNCIL OF THE UNIVERSITY OF TORONTO, priority 2012, dated 2023)

Assays:
E. faecalis biofilm [1] = test: Uptake of photosensitizers by E. faecalis biofilm; type: cell-based, E. faecalis (ATCC 29212); details: 15 min incubation, 7 day old biofilm
Method: The uptake of Rose Bengal, methylene blue and chitosan polymer-Rose Bengal nanoparticles was evaluated on biofilm forms of E. faecalis. A seven day old biofilm of E. faecalis (ATCC 29212) was grown in 24 multi-well plates. 1 mL of overnight E. faecalis culture was added into each well of the multi-well plates and incubated at 37° C., 100 rpm. Fresh media was replenished every 48 hours to provide a constant supply of nutrients and to remove dead bacterial cells. On the eighth day, the media was removed from the wells, and the biofilm was carefully washed once with sterile deionized-water. Different concentrations of chitosan polymer-Rose Bengal nanoparticles (0.3, 0.5 & 1 mg/mL) and MB and Rose Bengal (10, 25, 50 & […]) were added to the biofilm and incubated at 37° C. for 15 min, protected from ambient light. Three samples were used for each concentration. Excess photosensitizer solutions were removed leaving behind the bound Rose Bengal, MB and chitosan polymer-Rose Bengal nanoparticles in biofilm and washed once. The biofilm bacteria were treated with 1 mL of 2% SDS for 20 h in order to extract the cell-bound photosensitizers. The biofilms were disrupted and collected in eppendorf tubes. The biofilm bacteria were centrifuged (3000 rpm, 10 min) and the supernatant solution was taken for photosensitizer quantification. Quantification of photosensitizer was done spectrophotometrically (Epoch, Biotek, USA) at the absorption maxima of the Rose Bengal (540 nm). Calibration curves were constructed for each Rose Bengal in 2% SDS. Uptake values were obtained as the total Rose Bengal and MB concentrations (μM) extracted from both the 1 mL of planktonic and biofilm bacteria.

planktonic E. faecalis [2] = test: Membrane integrity of planktonic bacteria (release of cell constituents, OD260); type: cell-based, E. faecalis (ATCC 29212); details: following photodynamic therapy, 5 J/cm^2, 540 nm
Method: Leakage of cytoplasmic contents (DNA) is a characteristic indication of damage to the bacterial cytoplasmic membrane. Absorbance at 260 nm was used to estimate the amount of intracellular contents leaked from bacteria subjected to different photosensitizers and photodynamic therapy. E. faecalis (ATCC 29212) was incubated overnight at 37° C. under agitation in the Brain-Heart Infusion (BHI) medium (Sigma, USA). The culture was centrifuged (4000 rpm, 10 min, 4° C.), supernatants discarded and washed twice in sterile deionized water (DIW). The cells were resuspended in deionized water and adjusted to 10^7 CFU/mL (optical density 0.7) at 600 nm. The cell suspension (1 mL) was then added into eppendorf tubes and centrifuged. The supernatants were discarded and the cell pellets were treated with different photosensitizer solutions and maintained at 37° C. for 15 min, protected from ambient light. The kinetics of release of intracellular contents, treated bacterial cells were filtered (0.2 μm pore size, Pall) and absorbance of the filtrate recorded at 260 nm (OD260). For photodynamic therapy, the photosensitized cells were centrifuged and cell pellets irradiated (5 J/cm^2, 540 nm). The % change in OD260 at 15 min post sensitization and after irradiation with 5 J/cm^2 was calculated with respect to the OD260 of the sample measured at 0 min.

E. faecalis biofilm [3] = test: Biofilm structure by confocal laser scanning microscopy; type: cell-based, E. faecalis (ATCC 29212)
Method: The structure of the 7-days old biofilm following treatment with nanoparticulates was assessed using confocal-laser-scanning-microscopy (CLSM). E. faecalis (ATCC 29212) biofilm was grown on a glass bottom culture dishes. Following treatment with Rose Bengal (10 μM) and chitosan polymer-Rose Bengal nanoparticles (0.3 mg/mL) the as mentioned above, biofilms were washed with 1 mL of sterile deionized-water. The biofilms were then stained with 200 μL, of Live/Dead® Baclight™ stain (Molecular Probes, Eugene, Oreg.) and incubated in the dark for 10 minutes. The biofilm-structures were then viewed under spinning disk confocal-laser-scanning microscopy (Olympus, Japan). Kr/Ar laser was the source of illumination with 488 nm excitation and long-pass 500-523 nm and 622-722 nm emission filter settings for green and red signals respectively. Nine different areas were imaged from each sample using a 60× oil objective. The optical sections of the biofilm-structure were first recorded then subsequently analyzed using Velocity® software. Student t-test was used to compare the thickness of the biofilm before and after nanoparticulates treatment.

planktonic E. faecalis [4] = test: Antibacterial efficacy on planktonic bacteria (CFU count); type: cell-based, E. faecalis (ATCC 29212); details: 540 nm, 15 min sensitization
Method: E. faecalis (ATCC 29212) was used to test the antibacterial efficacy of Rose Bengal and chitosan polymer-Rose Bengal nanoparticles in both planktonic and biofilm forms. Planktonic cell pellets (10^9 cells/mL) were obtained and the cell pellets treated with 1 mL of Rose Bengal (10 μM) and chitosan polymer-Rose Bengal nanoparticles (0.1 & 0.3 mg/mL), at 37° C. for 15 min, in the manner previously described and protected from ambient light to allow sensitization. Dark toxicity was evaluated after 15 min of sensitization with the two treatment solutions. In the case of photodynamic therapy, the photosensitizer solutions were removed leaving a thin smear at the bottom of the eppendorf tubes. The sensitized planktonic-bacteria were irradiated using a 540 nm fiber with doses of 2 and 5 J/cm^2. After treatment, cell pellets were resuspended in sterile deionized-water (1 mL) and 100 μL of the suspension was plated in freshly poured BHI agar plates after serial dilution. Colonies were counted after 24 hours of incubation at 37° C. and expressed as log colony forming units (CFU) per mL.

E. faecalis biofilm [5] = test: Antibacterial efficacy on 7-days old biofilm (CFU count); type: cell-based, E. faecalis (ATCC 29212)
Method: In order to test the antibacterial-efficacy of nanoparticulates on bacterial-biofilm, 7-days old biofilm of E. faecalis (ATCC 29212) was grown in well of multiwell-plates as mentioned above. On the eighth day, the media was removed from the wells, and the biofilm was carefully washed once with sterile deionized-water. The biofilm-bacteria was treated with chitosan polymer-Rose Bengal nanoparticles and Rose Bengal and exposed to photodynamic therapy with different doses. Sensitization was done using 1 mL of Rose Bengal (10 μM) and chitosan polymer-Rose Bengal nanoparticles (0.1 & 0.3 mg/mL) at 37° C. for 15 min, protected from ambient light. Subsequently, the excess photosensitizer solutions were removed leaving behind the bound chitosan polymer-Rose Bengal nanoparticles and Rose Bengal. Dark toxicity was evaluated after sensitization period with the two treatment solutions. In case of photodynamic therapy, the sensitized biofilm-bacteria were irradiated using a 540 nm fiber with dosage of 20, 40 and 60 J/cm^2; and fractionated dosage of 10 and 20 J/cm^2 twice. After treatment, the biofilms were washed gently and 1 mL of sterile deionized-water was added. […] Colonies were counted after 24 hours of incubation at 37° C. and expressed as log colony forming units (CFU) per mL. The experiments were carried out in triplicates and the mean values were calculated.

[6] = test system: NIH 3T3 mouse fibroblast cells; test: Cytotoxicity, MTT assay with and without photodynamic therapy; type: cell-based
Method: To evaluate cytotoxicity approximately 1×10^5 NIH 3T3 mouse fibroblast cells (American Type Culture Collection CCL 1, Rockville, Md.) were seeded into 24 well plates in Dulbecco's Modified Eagle medium (DMEM) supplemented with 10% Bovine Serum and antibiotics and incubated for 48 hrs in 5% CO2 incubator (Thermo Electron Corporation, USA). After incubation, chitosan polymer-Rose Bengal nanoparticles and Rose Bengal dissolved in DMEM were added into the cells and incubated for 15 min in dark. The cells were irradiated with a white light source and a 540 nm fiber (Lumacare Inc) for a total dose of 20 J/cm^2. Rose Bengal and chitosan polymer-Rose Bengal nanoparticles were also tested without irradiation. […]
The supernatant media was removed without disturbing the cell line, and the cell layer was washed with 1 mL of phosphate-buffered saline. Cell survival was determined by the standard 3-(4, 5-dimethylthiazol-2-yl)-2, 5-diphenyltetrazolium bromide (MTT) assay (Sigma Aldrich) that determines the mitochondrial activity. […] The absorbance at 540 nm was measured photometrically by using a UV-visible spectrophotometer (Epoch, Biotek, USA). Percentage survival was calculated based on control sample without any treatment as 100%. All analyses were repeated three times in triplicate, and the statistical significance was analyzed by one-way analysis of variance.

SMILES | Biofilm E. faecalis photosensitizer uptake/mL of cells (E. faecalis biofilm [1]; photosensitizer 10 μM) [µM] | Biofilm E. faecalis photosensitizer uptake/mL of cells (E. faecalis biofilm [1]; photosensitizer 25 μM) [µM] | Biofilm E. faecalis photosensitizer uptake/mL of cells (E. faecalis biofilm [1]; photosensitizer 50 μM) [µM] | Biofilm E. faecalis photosensitizer uptake/mL of cells (E. faecalis biofilm [1]; photosensitizer 100 μM) [µM] | release of cell constituents (absorbance at 260 nm) (planktonic E. faecalis [2]) | biofilm architecture (E. faecalis biofilm [3]; after PD treatment (irradiation)) | thickness of the biofilm (E. faecalis biofilm [3]; after PD treatment, Rose Bengal 10 μM, CSRBnp 0.3 mg/mL, untreated 39.2±7.3) [µm] | light dose giving complete planktonic bacterial killing (planktonic E. faecalis [4]) [J/cm^2] | elimination of biofilm bacteria (E. faecalis biofilm [5]; fractionated photodynamic therapy, CSRBnp 0.3 mg/mL, Rose Bengal 10 μM) | killing of biofilm-bacteria (E. faecalis biofilm [5]; photodynamic therapy at 60 J/cm^2) | cell survival after photodynamic therapy ([6]; NIH 3T3, 540 nm, 20 J/cm^2) | dark toxicity ([6]; NIH 3T3, 15 min exposure, no irradiation)
CN(C)c1ccc2nc3ccc(=[N+](C)C)cc-3sc2c1 [MB, methylene blue] | 0.96 ± 0.07 | 1.75 ± 0.21 | 3.15 ± 0.16 | 5.07 ± 0.19 | – | – | – | – | – | – | – | –
O=C1OC2(c3cc(I)c(O)c(I)c3Oc3c2cc(I)c(O)c3I)c2c(Cl)c(Cl)c(Cl)c(Cl)c21 [RB, Rose Bengal] | 2.72 ± 0.15 | 2.80 ± 0.09 | 3.01 ± 0.11 | 3.68 ± 0.17 | increased absorbance at 260 nm | not disrupted | 21.5 ± 9.57 | 5 | not with Rose Bengal | did not show complete killing | further reduction of cell survival | higher dark toxicity
